From the NIST ThermoML archive (doi:10.1021/je060271a)

Conditions: 343.15 K, Liquid, Vibrating tube method

CCCC(=O)OCC(COC(=O)CCC)(COC(=O)CCC)COC(=O)CCC [pentaerythritol tetrabutyrate]
Conditions | mass density [kg/m3]
14185 kPa | 1019
14223 kPa | 1019.1
14263 kPa | 1019
14296 kPa | 1019.1
14334 kPa | 1019.1
14374 kPa | 1019.1
14412 kPa | 1019.1
14452 kPa | 1019.2
14485 kPa | 1019.2
14525 kPa | 1019.1
14564 kPa | 1019.1
14606 kPa | 1019.2
14639 kPa | 1019.3
14680 kPa | 1019.3
14721 kPa | 1019.3
14764 kPa | 1019.4
14805 kPa | 1019.4
14840 kPa | 1019.4
15093 kPa | 1019.6
15139 kPa | 1019.6
15180 kPa | 1019.6
15211 kPa | 1019.8
15248 kPa | 1019.7
15286 kPa | 1019.7
15317 kPa | 1019.7
15355 kPa | 1019.8
15392 kPa | 1019.8
15430 kPa | 1019.8
15469 kPa | 1019.9
15538 kPa | 1019.9
15616 kPa | 1020
15655 kPa | 1019.9
15688 kPa | 1020.1
15727 kPa | 1020.1
15769 kPa | 1020
15802 kPa | 1020.2
15842 kPa | 1020.2
15881 kPa | 1020.2
15922 kPa | 1020.2
15956 kPa | 1020.2
15997 kPa | 1020.2
16038 kPa | 1020.3
16079 kPa | 1020.2
16120 kPa | 1020.4
16154 kPa | 1020.3
16195 kPa | 1020.4
16239 kPa | 1020.3
16276 kPa | 1020.5
16318 kPa | 1020.4
16360 kPa | 1020.5
16403 kPa | 1020.5
16446 kPa | 1020.6
16489 kPa | 1020.5
16526 kPa | 1020.6
16570 kPa | 1020.6
16614 kPa | 1020.7
16659 kPa | 1020.6
16696 kPa | 1020.7
16741 kPa | 1020.8
16787 kPa | 1020.9
16833 kPa | 1020.9
16879 kPa | 1020.9
16918 kPa | 1021
16964 kPa | 1021
17012 kPa | 1020.9
17052 kPa | 1021
17100 kPa | 1021.1
17143 kPa | 1021.2
17186 kPa | 1021
17229 kPa | 1021.2
17265 kPa | 1021.1
17310 kPa | 1021.1
17355 kPa | 1021.3
17393 kPa | 1021.2
17439 kPa | 1021.3
17485 kPa | 1021.2
17525 kPa | 1021.4
17560 kPa | 1021.3
17590 kPa | 1021.4
17624 kPa | 1021.4
17660 kPa | 1021.5
17694 kPa | 1021.4
17730 kPa | 1021.5
17760 kPa | 1021.5
17796 kPa | 1021.6
17870 kPa | 1021.5
17900 kPa | 1021.5
17935 kPa | 1021.6
17972 kPa | 1021.8
18009 kPa | 1021.6
18039 kPa | 1021.7
18076 kPa | 1021.8
18113 kPa | 1021.7
18150 kPa | 1021.8
18187 kPa | 1021.7
18218 kPa | 1021.8
18256 kPa | 1021.9
18294 kPa | 1021.8
18332 kPa | 1022
18370 kPa | 1021.9
18402 kPa | 1021.9
18441 kPa | 1022
18479 kPa | 1022
18518 kPa | 1022.1
18552 kPa | 1022.2
18590 kPa | 1022.1
18630 kPa | 1022.1
18669 kPa | 1022.1
18703 kPa | 1022.1
18742 kPa | 1022.2
18784 kPa | 1022.2
18824 kPa | 1022.3
18864 kPa | 1022.3
18898 kPa | 1022.2
18938 kPa | 1022.4
18978 kPa | 1022.3
19020 kPa | 1022.4
19054 kPa | 1022.4
19096 kPa | 1022.5
19138 kPa | 1022.5
19216 kPa | 1022.5
19297 kPa | 1022.6
19340 kPa | 1022.6
19382 kPa | 1022.6
19425 kPa | 1022.6
19468 kPa | 1022.7
19504 kPa | 1022.8
19548 kPa | 1022.7
19591 kPa | 1022.9
19634 kPa | 1022.7
19679 kPa | 1022.9
19717 kPa | 1022.8
19761 kPa | 1022.8
19809 kPa | 1022.9
19854 kPa | 1022.9
19892 kPa | 1023
19938 kPa | 1023
19984 kPa | 1023.1
20022 kPa | 1023.2
20068 kPa | 1023.1
20115 kPa | 1023.2
20161 kPa | 1023.1
20200 kPa | 1023.2
20247 kPa | 1023.1
20294 kPa | 1023.1
20341 kPa | 1023.3
